Laboratory results reported in patent US20190209650A1, “METHOD TO IMPROVE THE EFFECTIVENESS OF ANTI-CANCER THERAPIES BY EXPOSING CANCER CELLS TO AN INFLAMMATORY STIMULUS PRIOR TO TREATMENT” (priority 2016, published 2019).

Columns and labels:
[1] = system: cancer cells; assay: Cancer cell viability after 72 hours HGF only pretreatment followed by 72 hour combination treatment; type: cell-based; details: 72 hours HGF exposure followed by 72 hour combination treatment; FIG. 8
Description: FIG. 8 depicts a table showing cancer cell viability after 72 hours of HGF only pretreatment, followed by 72 hour combination treatment (COMBO=30 μM paclitaxel, 250 μs/mL oseltamivir phosphate, and 2.5 mM aspirin). HI1=HGF 0.5 ng/ml; HI2=HGF 1 ng/ml; HI3=HGF 5 ng/ml.
(§1) In the following experiments various concentrations of hepatocyte growth factor (HGF) and Interleukin 6 (IL-6), used singly and together, were used to sensitize cancer cell lines to cytotoxic chemotherapy. In these experiments a combination anti-cancer treatment of paclitaxel with aspirin and oseltamivir phosphate (OP) were used. Cell lines treated with the combination treatment (COMBO) alone were compared with those treated with the combination treatment after exposure to cytokines.
Thus, exposure to this particular cytokine, for longer than 48 hours can increase the likelihood that the cancer cell population is transitioning over to a more stem cell enriched phenotype, rendering the cells less sensitive to the effects of cytotoxic therapies. Other cytokines such as HGF, IL-6, PGE-2, MCP-1, MMP-9, TGF-beta, PDGF-BB, and PGF, the up-regulation of which is associated with stem cell enrichment should also be administered in this time limited manner to avoid a stem cell enriched phenotype that is more resistant to the chemotherapy treatment. […]

[2] = system: SW 620 cell lines; assay: Cancer stem cells remaining after cytokine exposure and 24 hours exposure to CPT-11 (Irinotecan); type: cell-based, human; details: FIG. 4
Description: FIG. 4 depicts a table showing percentage of Cancer Stem Cells remaining after exposure to various cytokines and 24 hours exposure to CPT-11 (Irinotecan). The present inventor then performed experiments to determine if exposure to HGF would improve the effectiveness of chemotherapy treatment, based on a prediction that this stimulus, by fostering differentiation of the stem cell subpopulation, would render these cells more susceptible to chemotherapy. […] Furthermore, exposure to HGF alone for 24 hours at a concentration of 10 ng per ml followed by treatment with CPT-11 in SW 620 cell lines was able to kill cancer stem cells effectively as well, given that there were no remaining cancer stem cells after this sensitization (FIG. 4 0% CD44+/CD133−).

[3] = system: PANC1; assay: Cancer cell viability after 48 hours HGF only pretreatment followed by 72 hour combination treatment; type: cell-based, human; details: 48 hours HGF exposure followed by 72 hour combination treatment; FIG. 7
Description: FIG. 7 depicts tables showing cancer cell viability after 48 hours of HGF only pretreatment, followed by 72 hour combination treatment. HI1=HGF 0.5 ng/ml; H12=HGF 1 ng/ml; HI3=HGF 5 ng/ml. A) PANC1 48 hour HGF exposure followed by 72 hour combination treatment (COMBO=30 paclitaxel, 250 μg/mL oseltamivir phosphate, and 2.5 mM aspirin). B) PANC1 48 hour HGF exposure followed by 72 hour combination treatment (COMBO=50 μM paclitaxel, 250 μg/mL oseltamivir phosphate, and 2.5 mM aspirin).
as §1
In FIG. 7, exposing human pancreatic cancer cell lines (PANC-1) cells to HGF for 48 hours at various concentrations sensitized cancer cells to subsequent combination treatment. […] P-value in FIG. 7 was calculated based on comparison between Combination Treatment vs. Pretreatment Followed by Combination Treatment.

[4] = system: SW620 colorectal cancer cell line; assay: Flow cytometry of EpCAM positive cells and cancer stem cell (CD44+CD133-) subpopulation after incubation with cytokines; type: cell-based, human; details: for % Gated, R4 (CD44FITC, CD133 PE) / % Total, R4 (CD44FITC, CD133 PE): population R4 & R14 & R2 & R1; for % Gated, R5 (CD44FITC, CD133 PE) / % Total, R5 (CD44FITC, CD133 PE): population R5 & R14 & R2 & R1; for % Gated, R6 (CD44FITC, CD133 PE) / % Total, R6 (CD44FITC, CD133 PE): population R6 & R14 & R2 & R1; for % Gated, R7 Cancer Stem Cell (CSC) (CD44+CD133-) / % Total, R7 Cancer Stem Cell (CSC) (CD44+CD133-): population R7 & R14 & R2 & R1; for % Gated, R8 (CD44FITC, EpCAMefluor710) / % Total, R8 (CD44FITC, EpCAMefluor710): population R8 & R14 & R2 & R1; for % Gated, R9 EpCAM positive Cells (CD44FITC, EpCAMefluor710) / % Total, R9 EpCAM positive Cells (CD44FITC, EpCAMefluor710): population R9 & R14 & R2 & R1; for % Gated, R10 EpCAM positive Cells (CD44FITC, EpCAMefluor710) / % Total, R10 EpCAM positive Cells (CD44FITC, EpCAMefluor710): population R10 & R14 & R2 & R1; for % Gated, R11 (CD44FITC, EpCAMefluor710) / % Total, R11 (CD44FITC, EpCAMefluor710): population R11 & R14 & R2 & R1; for putative stem cell population (CD44+/CD133-): SW620; for percentage of cancer stem cells: human cancer cell line, single agent at 1000 pg/ml
Description: This number returned to near baseline 21% at 48 hours. […] This change was transient, occurring within 24 hours and rapidly returning to baseline.
The data from the scatter plots of FIGS. 1A-1H, 2A-2H, and 3A-3H are reproduced below in Tables 1-3.
Based on the above data of potentiating the effectiveness of chemotherapy by exposing cancer cells to specific cytokines such as HGF and or Il-6 within a time limited fashion, the mechanism behind this ability to sensitize cancer cells may not simply be triggering cellular proliferation. Specific cytokine exposures can transiently cause a cancer cell population to differentiate away from a more stem cell enriched, mesenchymal phenotype towards a more differentiated, epithelial cell population more sensitive to the effects of anti-cancer therapies (see Tables 1-3).
In particular, exposure to a control population of SW620 colorectal cancer cell line to HGF at a concentration of 10 ng per ml for 24 hours caused the control putative stem cell population (CD44+/CD133−) to drop from 33% at baseline (see Table 1, R7 region, CD 44 positive/CD133 negative) to 1% (see Table 2, R7, region CD 44 positive/CD133 negative). This drop was transient, as exposure to the same cell line for 48 hours of HGF at 10 ng per ml transitioned the phenotypic distribution back towards a stem cell enriched phenotype with 23% putative stem cells (see Table 3, R7 region, CD 44 positive/CD133 negative).

[5] = after exposure to HGF, then chemotherapy (CPT-11)

## HGF: Hepatocyte Growth Factor, cytokine
[1]
  sensitization of cancer cells to the combination treatment: made the combination treatment less effective
[2]; HGF alone 24 hours at 10 ng per ml followed by CPT-11, SW 620
  remaining cancer stem cells CD44+/CD133-: 0%
[2]; [5]
  cancer stem cells killed: 100%
  viable cancer stem cells remaining: no viable cancer stem cells remaining
[3]
  reduction in cell viability: 87%
[4]; 0 hour incubation
  % Gated, R4 (CD44FITC, CD133 PE): 48.6%
  % Total, R4 (CD44FITC, CD133 PE): 46.6%
  % Gated, R5 (CD44FITC, CD133 PE): 3.61%
  % Total, R5 (CD44FITC, CD133 PE): 3.45%
  % Gated, R6 (CD44FITC, CD133 PE): 14.2%
  % Total, R6 (CD44FITC, CD133 PE): 13.6%
  % Gated, R7 Cancer Stem Cell (CSC) (CD44+CD133-): 33.8%
  % Total, R7 Cancer Stem Cell (CSC) (CD44+CD133-): 32.3%
  % Gated, R8 (CD44FITC, EpCAMefluor710): 5.28%
  % Total, R8 (CD44FITC, EpCAMefluor710): 5.06%
  % Gated, R9 EpCAM positive Cells (CD44FITC, EpCAMefluor710): 53.1%
  % Total, R9 EpCAM positive Cells (CD44FITC, EpCAMefluor710): 50.9%
  % Gated, R10 EpCAM positive Cells (CD44FITC, EpCAMefluor710): 39%
  % Total, R10 EpCAM positive Cells (CD44FITC, EpCAMefluor710): 37.4%
  % Gated, R11 (CD44FITC, EpCAMefluor710): 2.16%
  % Total, R11 (CD44FITC, EpCAMefluor710): 2.07%
[4]; 24 h incubation
  % Gated, R4 (CD44FITC, CD133 PE): 98.6%
  % Total, R4 (CD44FITC, CD133 PE): 84.7%
  % Gated, R5 (CD44FITC, CD133 PE): 0%
  % Total, R5 (CD44FITC, CD133 PE): 0%
  % Gated, R6 (CD44FITC, CD133 PE): 0.07%
  % Total, R6 (CD44FITC, CD133 PE): 0.06%
  % Gated, R7 Cancer Stem Cell (CSC) (CD44+CD133-): 1.01%
  % Total, R7 Cancer Stem Cell (CSC) (CD44+CD133-): 0.87%
  % Gated, R8 (CD44FITC, EpCAMefluor710): 99.8%
  % Total, R8 (CD44FITC, EpCAMefluor710): 85.7%
  % Gated, R9 EpCAM positive Cells (CD44FITC, EpCAMefluor710): 0.02%
  % Total, R9 EpCAM positive Cells (CD44FITC, EpCAMefluor710): 0.02%
  % Gated, R10 EpCAM positive Cells (CD44FITC, EpCAMefluor710): 0.02%
  % Total, R10 EpCAM positive Cells (CD44FITC, EpCAMefluor710): 0.02%
  % Gated, R11 (CD44FITC, EpCAMefluor710): 0.2%
  % Total, R11 (CD44FITC, EpCAMefluor710): 0.17%
[4]; 48 h incubation
  % Gated, R4 (CD44FITC, CD133 PE): 38%
  % Total, R4 (CD44FITC, CD133 PE): 34.2%
  % Gated, R5 (CD44FITC, CD133 PE): 7.48%
  % Total, R5 (CD44FITC, CD133 PE): 6.73%
  % Gated, R6 (CD44FITC, CD133 PE): 31.3%
  % Total, R6 (CD44FITC, CD133 PE): 28.2%
  % Gated, R7 Cancer Stem Cell (CSC) (CD44+CD133-): 23.9%
  % Total, R7 Cancer Stem Cell (CSC) (CD44+CD133-): 21.5%
  % Gated, R8 (CD44FITC, EpCAMefluor710): 20%
  % Total, R8 (CD44FITC, EpCAMefluor710): 18%
  % Gated, R9 EpCAM positive Cells (CD44FITC, EpCAMefluor710): 34.7%
  % Total, R9 EpCAM positive Cells (CD44FITC, EpCAMefluor710): 31.2%
  % Gated, R10 EpCAM positive Cells (CD44FITC, EpCAMefluor710): 31.8%
  % Total, R10 EpCAM positive Cells (CD44FITC, EpCAMefluor710): 28.7%
  % Gated, R11 (CD44FITC, EpCAMefluor710): 14.4%
  % Total, R11 (CD44FITC, EpCAMefluor710): 12.9%
[4]; 10 ng per ml for 24 hours (Table 2, R7 region)
  putative stem cell population (CD44+/CD133-): 1%
[4]; 10 ng per ml for 48 hours (Table 3, R7 region)
  putative stem cell population (CD44+/CD133-): 23%
[4]; at baseline (Table 1, R7 region)
  putative stem cell population (CD44+/CD133-): 33%
[4]; at 24 hours
  percentage of cancer stem cells: less than one percent
[4]; at 48 hours
  percentage of cancer stem cells: 21%
[4]; prior to exposure
  percentage of cancer stem cells: approximately 30%
